This note sets out measurements from PubChem BioAssay (NCI).

Holding throughout (assay): inhibition of tumour cell growth, NCI panel, 48 h
In test [1] the test system is MDA-N.
Test [2] concerns 786-0 renal.
In test [3] the test system is HOP-92 NSCLC.
Test [4] deals with EKVX NSCLC.
Test [5] relates to HL-60(TB) leukemia.
For test [6], the system named is SK-MEL-5 melanoma.
Test [7] deals with PC-3 prostate.
In test [8] the test system is OVCAR-5 ovarian.
The subject of test [9] is BT-549 breast.
In test [10] the test system is ACHN renal.
For test [11], the system named is SNB-75 CNS.
The test system of test [12] is SR leukemia.
Test [13] concerns UO-31 renal.

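1) Cells in 96-well plates. 2) Compound, 48 h, 5 concentrations. 3) Linear interpolation between surrounding doses. 4) Unreached endpoint = highest concentration. TGI marks complete inhibition of growth.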 Some results are limits rather than exact numbers.

With `CC1(C)CCCCCCCCCC2CC2CCC(C)(C)C1=O` (centres undefined), the TGI is over 100 µM in [1]; 31.5 µM in test [2]; 62.7 µM in [3]; 39.3 µM in test [4]; 49.1 µM in test [5]; 43.2 µM in test [6]. The TGI in [7] came to 70.9 µM; in [8], 40 µM; in test [9] it was 87.4 µM; in test [10], 33.4 µM; in [11], 71.1 µM; in test [12], 53.5 µM. In [13], this molecule registered a TGI of 36.9 µM.
Consider `Cc1ccsc1C(=S)Nc1ccc(Cl)c(/C=N/OC(C)C)c1`, for which the TGI is over 100 µM in test [1]; over 100 µM in test [2]; over 100 µM in test [3]; over 100 µM in test [4]; 34.6 µM in test [5]; 75.4 µM in [6]. For the same molecule, the TGI in test [7] was over 100 µM; in test [8] it was over 100 µM; in test [9] it was over 100 µM; in [10], over 100 µM; in [11], over 100 µM; in test [12], 48.7 µM. In test [13], this molecule returned a TGI of over 100 µM.
Regarding `Cc1cn(C2CCN(CC3COC(C)(C)O3)O2)c(=O)[nH]c1=O` (centres undefined), the TGI in test [1], in test [2], in [3], in test [4], in test [5] and in test [6] was over 100 µM each time. In addition, the TGI in test [7], in test [8], in test [9], in test [10], in [11] and in test [12] was over 100 µM in each case. The molecule also showed a TGI in test [13] of over 100 µM.
For the molecule `CN(C)CC1CCC/C(=C\c2ccccc2)C1=O` (centres undefined), the TGI in [1] is 8.93 µM; in test [2] it was 6.9 µM; in test [3], 8.26 µM; in test [4], 33.7 µM; in test [5], over 100 µM; in test [6], 21.4 µM. The TGI in test [7] was 21 µM; in test [8], 29 µM; in test [9] it was 23.1 µM; in test [10], 12.6 µM; in test [11], 26.7 µM; in [12], over 100 µM. In test [13], this molecule yielded a TGI of 5.08 µM.
On to `CCC12C=CCN3CCC4(c5cc(C(c6ccc(OC)cc6)C6Cc7ccccc7N6)c(OC)cc5N(C)C4C(O)(C(=O)OC)C1O)C32` (centres undefined), for which the TGI in test [1] is over 100 µM; in [2] it was over 100 µM; in test [3], 8.14 µM; in test [4] it was over 100 µM; in [5], 24.1 µM; in test [6], 52 µM. Moreover, the TGI in test [7] is over 100 µM; in test [8] it was over 100 µM; in test [9] it was 80.6 µM; in test [10] it was over 100 µM; in [11] it was 33.7 µM; in test [12] it was 27 µM. This molecule also gave a TGI in test [13] of 31.5 µM.
Take `COc1ccc(-c2nc3c(C(=O)NCCN(C)C)cccc3c3ccccc23)cc1`: the TGI was determined as 5.45 µM in test [1]; 6.86 µM in test [2]; 12.3 µM in test [3]; 19.6 µM in [4]; 7 µM in [5]; 3.3 µM in [6]. Further, the TGI was 13.7 µM in test [7]; 18.2 µM in test [8]; 22.3 µM in test [9]; 12.8 µM in test [10]; 17.6 µM in test [11]; 6.96 µM in test [12]. Further, the TGI in test [13] turned out to be 5.16 µM.
For the molecule `CCOC(=O)c1sc2nc1CSc1sc(=S)sc1SCc1nc(sc1C(=O)OCC)-c1nc(c(C(=O)OCC)s1)CSc1sc(=S)sc1SCc1nc-2sc1C(=O)OCC`, the TGI in test [1], in test [2], in test [3], in test [4], in test [5] and in test [6] was over 10 µM in each case. Also, the TGI in test [7], in [8], in [9], in test [10], in [11] and in test [12] was over 10 µM in each case. In test [13], the TGI was over 10 µM.
On to `COc1cc(C2OC[C@@H]3C(=O)OC[C@H]23)cc(O)c1OC` (some centres undefined), for which the TGI in test [1], in [2], in [3], in test [4], in [5] and in test [6] was over 100 µM in each case. The TGI in [7], in test [8], in test [9], in [10], in [11] and in [12] was over 100 µM each time. In test [13], this molecule yielded a TGI of over 100 µM.
